Laboratory results published in PubChem BioAssay (NCI).
Several values for one entry are separate records, joined by “and”; a condition that tells them apart may be missing. Equal entries are not always repeated.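 Compound exposure: 48 hours, 5 concentrations, 96-well plates. At the GI50, growth is halved. TGI: total growth inhibition.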

Assays:
Assay in all cases: inhibition of tumour cell growth, NCI panel, 48 h
MDA-MB-231 breast = tested on: MDA-MB-231 breast
HOP-92 NSCLC = tested on: HOP-92 NSCLC
T-47D breast = tested on: T-47D breast
SK-OV-3 ovarian = tested on: SK-OV-3 ovarian
TK-10 renal = tested on: TK-10 renal
U251 CNS = tested on: U251 CNS
K-562 leukemia = tested on: K-562 leukemia
OVCAR-4 ovarian = tested on: OVCAR-4 ovarian

With `CN(CCn1cnc2c1c(=O)n(C)c(=O)n2C)C1CCCCC1` the TGI (MDA-MB-231 breast) was > 100 µM, the TGI (HOP-92 NSCLC) was > 100 µM and the TGI (T-47D breast) was > 100 µM. The TGI (SK-OV-3 ovarian) was > 100 µM, the TGI (TK-10 renal) was > 100 µM and the TGI (U251 CNS) was > 100 µM. For the same molecule, the TGI (K-562 leukemia) was > 100 µM and the TGI (OVCAR-4 ovarian) was > 100 µM.

`CCCCCCCCOC1C(O)C(O)C(O)C(O)C12CO2` (stereo not given) was tested, and the TGI (MDA-MB-231 breast) was > 100 µM, the TGI (T-47D breast) was > 100 µM and the TGI (SK-OV-3 ovarian) was > 100 µM. The TGI (TK-10 renal) was > 100 µM, the TGI (U251 CNS) was > 100 µM and the TGI (K-562 leukemia) was > 100 µM.

With `CC(=O)OC(/C=C/c1ccccc1)P1(=O)N(CC(C)(C)C)[C@@H]2CCCC[C@H]2N1CC(C)(C)C` (stereo not given in full) the TGI (MDA-MB-231 breast) was 24.4 µM and 20.4 µM, the TGI (HOP-92 NSCLC) was 26.4 µM and the GI50 (T-47D breast) was 2.9 µM and 1.18 µM. For the same molecule, the TGI (T-47D breast) was 9.04 µM and 6.4 µM, the TGI (SK-OV-3 ovarian) was 37.4 µM and 25.7 µM and the GI50 (TK-10 renal) was 10.1 µM and 4.82 µM. The TGI (TK-10 renal) was 22.4 µM and 16.6 µM, the TGI (U251 CNS) was 22.6 µM and 19.7 µM and the TGI (K-562 leukemia) was 21.7 µM and 20.6 µM. The TGI (OVCAR-4 ovarian) was 20.5 µM and 19.7 µM.

`CCOC(=O)C1=CNC(C(=O)OCC)C1c1cccn1-c1ccc(Cl)cc1[N+](=O)[O-]` (stereo not given) was tested, and the TGI (MDA-MB-231 breast) was 27.2 µM, the TGI (HOP-92 NSCLC) was 51.7 µM and the TGI (T-47D breast) was > 100 µM. The TGI (SK-OV-3 ovarian) was > 100 µM, the TGI (TK-10 renal) was 54.9 µM and the TGI (U251 CNS) was 41.1 µM. For the same molecule, the TGI (K-562 leukemia) was 85.9 µM and the TGI (OVCAR-4 ovarian) was 98.3 µM.

In the case of `NC(N)=N/N=C/c1nc2n(c1[N+](=O)[O-])CCS2`, the TGI (MDA-MB-231 breast) is reported as > 100 µM, the TGI (HOP-92 NSCLC) is reported as > 100 µM and the TGI (T-47D breast) is reported as 67.4 µM. The TGI (SK-OV-3 ovarian) was > 100 µM, the TGI (TK-10 renal) was > 100 µM and the TGI (U251 CNS) was 89.3 µM. It also gave a TGI (OVCAR-4 ovarian) of 41 µM.

In the case of `CCOC(=O)c1cc(-c2cc(OC)c(OC)c([N+](=O)[O-])c2)c([N+](=O)[O-])n1C`, the TGI (HOP-92 NSCLC) is reported as > 10 µM, the TGI (TK-10 renal) is reported as > 10 µM and the TGI (U251 CNS) is reported as > 10 µM. The TGI (K-562 leukemia) was > 10 µM and the TGI (OVCAR-4 ovarian) was > 10 µM.

With `O=C(/C=C/c1ccc(O)cc1)c1ccc2c(c1)OCO2` the TGI (MDA-MB-231 breast) was 37.4 µM, the TGI (HOP-92 NSCLC) was 58.8 µM and the TGI (T-47D breast) was 75.3 µM. It also gave a TGI (SK-OV-3 ovarian) of 82.6 µM, a TGI (U251 CNS) of 36.2 µM and a TGI (K-562 leukemia) of 81.5 µM. The TGI (OVCAR-4 ovarian) was 48 µM.

`O=C(O)c1cc2ccccc2c(N=Nc2ccc(S(=O)(=O)Nc3nccs3)cc2)c1O` was tested, and the TGI (MDA-MB-231 breast) was > 100 µM, the TGI (HOP-92 NSCLC) was > 100 µM and the TGI (T-47D breast) was > 100 µM. The TGI (SK-OV-3 ovarian) was > 100 µM, the TGI (TK-10 renal) was > 100 µM and the TGI (U251 CNS) was > 100 µM. The TGI (K-562 leukemia) was > 100 µM and the TGI (OVCAR-4 ovarian) was > 100 µM.

With `S=C(NC1=NCC(CN2CCN(c3ccccc3)CC2)O1)Nc1ccccc1` (stereo not given) the TGI (MDA-MB-231 breast) was > 100 µM, the TGI (HOP-92 NSCLC) was > 100 µM and the TGI (T-47D breast) was > 100 µM. The TGI (SK-OV-3 ovarian) was > 100 µM, the TGI (TK-10 renal) was > 100 µM and the TGI (U251 CNS) was > 100 µM. For the same molecule, the TGI (K-562 leukemia) was > 100 µM and the TGI (OVCAR-4 ovarian) was > 100 µM.

With `O=C(NCCC1([N+](=O)[O-])CCN(C(=O)c2ccccc2)CC1)c1ccccc1` the TGI (MDA-MB-231 breast) was > 100 µM, the TGI (T-47D breast) was > 100 µM and the TGI (SK-OV-3 ovarian) was > 100 µM. The TGI (TK-10 renal) was > 100 µM, the TGI (K-562 leukemia) was > 100 µM and the TGI (OVCAR-4 ovarian) was > 100 µM.

In the case of `C1CCC2(CC1)O[C@@H]1[C@@H](O2)[C@@H](O[C@H]2O[C@@H]3COC4(CCCCC4)O[C@H]3[C@@H]3OC4(CCCCC4)O[C@@H]23)O[C@@H]2COC3(CCCCC3)O[C@@H]12`, the TGI (MDA-MB-231 breast) is reported as > 100 µM, the TGI (HOP-92 NSCLC) is reported as > 100 µM and the TGI (T-47D breast) is reported as > 100 µM. The TGI (SK-OV-3 ovarian) was > 100 µM, the TGI (TK-10 renal) was > 100 µM and the TGI (U251 CNS) was > 100 µM. The TGI (K-562 leukemia) was > 100 µM and the TGI (OVCAR-4 ovarian) was > 100 µM.

`CC(=O)OCCOCn1c2c(c(=S)[nH]c1=O)CCC2` was tested, and the TGI (MDA-MB-231 breast) was > 100 µM, the TGI (HOP-92 NSCLC) was > 100 µM and the TGI (TK-10 renal) was > 100 µM. For the same molecule, the TGI (U251 CNS) was > 100 µM, the TGI (K-562 leukemia) was > 100 µM and the TGI (OVCAR-4 ovarian) was > 100 µM.

With `O=C1CCC2(CC1CC(Sc1ccccc1)Sc1ccccc1)OCCO2` (stereo not given) the TGI (MDA-MB-231 breast) was > 100 µM, the TGI (HOP-92 NSCLC) was > 100 µM and the TGI (T-47D breast) was 97.3 µM. For the same molecule, the TGI (SK-OV-3 ovarian) was > 100 µM, the TGI (TK-10 renal) was > 100 µM and the TGI (U251 CNS) was > 100 µM. For the same molecule, the TGI (K-562 leukemia) was > 100 µM and the TGI (OVCAR-4 ovarian) was > 100 µM.

With `COC(=O)CCC(=O)NC1=C(NCc2ccccc2)C(=O)c2ccccc2C1=O` the TGI (MDA-MB-231 breast) was 85.7 µM, the TGI (HOP-92 NSCLC) was 48.2 µM and the TGI (T-47D breast) was > 100 µM. The TGI (SK-OV-3 ovarian) was > 100 µM, the TGI (TK-10 renal) was > 100 µM and the TGI (U251 CNS) was 94.8 µM. The TGI (K-562 leukemia) was > 100 µM and the TGI (OVCAR-4 ovarian) was 49.8 µM.

With `Nc1nc(Cl)c(N)c(NCC2(CO)CC(OCc3ccccc3)C2)n1` (stereo not given) the TGI (MDA-MB-231 breast) was > 100 µM, the TGI (HOP-92 NSCLC) was > 100 µM and the TGI (T-47D breast) was > 100 µM. For the same molecule, the TGI (SK-OV-3 ovarian) was > 100 µM, the TGI (TK-10 renal) was > 100 µM and the TGI (U251 CNS) was > 100 µM. The TGI (K-562 leukemia) was > 100 µM and the TGI (OVCAR-4 ovarian) was > 100 µM.

For `COC(=O)/C=C\n1c(C)cc(=O)[nH]c1=O`, the TGI (HOP-92 NSCLC) was > 100 µM, the TGI (T-47D breast) was > 100 µM and the TGI (SK-OV-3 ovarian) was > 100 µM. For the same molecule, the TGI (TK-10 renal) was > 100 µM, the TGI (U251 CNS) was > 100 µM and the TGI (K-562 leukemia) was > 100 µM. The TGI (OVCAR-4 ovarian) was > 100 µM.

`O=CN1CCN(C(=O)c2ccc(Cl)cc2Cl)C1=S` was tested, and the TGI (MDA-MB-231 breast) was > 100 µM, the TGI (HOP-92 NSCLC) was 98.7 µM and the TGI (T-47D breast) was > 100 µM. For the same molecule, the TGI (SK-OV-3 ovarian) was > 100 µM, the TGI (TK-10 renal) was > 100 µM and the TGI (U251 CNS) was > 100 µM. For the same molecule, the TGI (K-562 leukemia) was > 100 µM and the TGI (OVCAR-4 ovarian) was > 100 µM.

`O=C(c1ccccc1)N1CCN(C(=S)N(C(=O)c2ccccc2)c2ccccc2)C1=S` was tested, and the TGI (MDA-MB-231 breast) was > 42.5 µM, the TGI (HOP-92 NSCLC) was 20 µM and the TGI (T-47D breast) was > 31.9 µM. It also gave a TGI (SK-OV-3 ovarian) of 30.2 µM, a TGI (TK-10 renal) of 16.6 µM and a TGI (U251 CNS) of 22.6 µM. For the same molecule, the TGI (K-562 leukemia) was > 100 µM and the TGI (OVCAR-4 ovarian) was 10.9 µM.

With `Nc1ncnc2c1nnn2C1C=CC(COS(N)(=O)=O)C1` (stereo not given) the TGI (MDA-MB-231 breast) was > 100 µM, the TGI (T-47D breast) was 97.7 µM and the TGI (SK-OV-3 ovarian) was > 100 µM. For the same molecule, the TGI (TK-10 renal) was 36.4 µM, the TGI (U251 CNS) was 57.7 µM and the TGI (K-562 leukemia) was > 100 µM. The TGI (OVCAR-4 ovarian) was 62.3 µM.

For `OC(c1cc2ccccc2o1)c1cc2ccccc2s1` (stereo not given), the TGI (MDA-MB-231 breast) was > 10 µM, the TGI (HOP-92 NSCLC) was > 10 µM and the TGI (T-47D breast) was > 10 µM. For the same molecule, the TGI (SK-OV-3 ovarian) was > 10 µM, the TGI (TK-10 renal) was > 10 µM and the TGI (U251 CNS) was > 10 µM. For the same molecule, the TGI (K-562 leukemia) was > 10 µM and the TGI (OVCAR-4 ovarian) was > 10 µM.

In the case of `COC(=O)CCC(=O)NC1=C(Nc2ccc(OC)cc2)C(=O)c2ccccc2C1=O`, the TGI (MDA-MB-231 breast) is reported as 27.3 µM, the TGI (HOP-92 NSCLC) is reported as 27 µM and the TGI (T-47D breast) is reported as 40.4 µM. The TGI (SK-OV-3 ovarian) was 88.1 µM, the TGI (TK-10 renal) was 85.3 µM and the TGI (U251 CNS) was 57.5 µM. For the same molecule, the TGI (K-562 leukemia) was > 86.8 µM and the TGI (OVCAR-4 ovarian) was 24.7 µM.

With `CCCCc1ccc(Nc2nc3c(ncn3C3CC(O)C(CN=[N+]=[N-])O3)c(=O)[nH]2)cc1` (stereo not given) the TGI (MDA-MB-231 breast) was > 100 µM, the TGI (HOP-92 NSCLC) was > 100 µM and the TGI (T-47D breast) was > 100 µM. For the same molecule, the TGI (SK-OV-3 ovarian) was > 100 µM, the TGI (U251 CNS) was > 100 µM and the TGI (K-562 leukemia) was > 100 µM. The TGI (OVCAR-4 ovarian) was > 100 µM.

For `COC(=O)C(Cc1c(C2Nc3ccccc3C2CC(NC(=O)CNC(C)=O)C(=O)OC)[nH]c2ccccc12)NC(=O)CNC(C)=O` (stereo not given), the TGI (MDA-MB-231 breast) was > 100 µM, the TGI (HOP-92 NSCLC) was > 100 µM and the TGI (T-47D breast) was > 100 µM. For the same molecule, the TGI (SK-OV-3 ovarian) was > 100 µM, the TGI (TK-10 renal) was > 100 µM and the TGI (U251 CNS) was > 100 µM. For the same molecule, the TGI (K-562 leukemia) was > 100 µM and the TGI (OVCAR-4 ovarian) was > 100 µM.

For `CC[C@]12C=CCN3CC[C@@]4(c5cc(Br)c(OC)cc5N(C)[C@H]4[C@@](O)(C(=O)NN)[C@@H]1O)[C@@H]32`, the TGI (MDA-MB-231 breast) was > 100 µM, the TGI (HOP-92 NSCLC) was > 100 µM and the TGI (T-47D breast) was > 100 µM. The TGI (SK-OV-3 ovarian) was > 100 µM, the TGI (TK-10 renal) was > 100 µM and the TGI (U251 CNS) was > 100 µM. The TGI (K-562 leukemia) was > 100 µM and the TGI (OVCAR-4 ovarian) was > 100 µM.
